Results as given in patent EP0148075A2, “Anti-PGE specific monoclonal antibodies, their preparation and their biological applications” (INSTITUT PASTEUR, priority 1983, dated 1985).

Legend:
Assay type in all cases: binding, souris
[1] = tested on: anticorps monoclonal anti-PG E2 secrété par les hybridomes 42-61-48 (CNCM 1-255), type IgG Cb Kapa; experiment: competition radioimmunoassay (affinity by Scatchard plot, specificity by displacement of tritiated PG E2); conditions: 12 h at 4°C; for quantité qu'il faut pour déplacer 2,5 pg de PG E2 tritiée liée à l'anticorps: competition with tritiated PG E2
Description: (§1) 'L'affinité des anticorps est étudiée en effectuant un essai radio-immunologique dit de compétition; on détermine l'importance relative de la fixation de PG E marquée au tritium et non marquée sur les anticorps monoclonaux à étudier pour des mélanges de ces PG E en quantités données; Pour cela, on fait incuber 12 heures à 4°C des quantités croissantes de PG E non marquée avec une dilution du surnageant de chaque puits dans lequel se développent des clones secréteurs, en présence de 10 pg de la même PG E mais tritiée; on calcule la dilution pour que 50% de la PG E tritiée se fixe sur les anticorps présents; les résultats obtenus sont représentés selon une courbe de Scatchard, d'où l'on déduit, de façon connue, la constante d'association de l'anticorps monoclonal à la PG E qui traduit l'affinité des anticorps pour leur antigène. La méthode de calcul de la constante d'association est décrite notamment dans Ann. N.Y. Acad. Sci.5l, p.660-672 (1949).
(§2) La spécificité des anticorps est étudiée en effectuant le même type d'essai radioimmunologique de compétition lors de la fixation sur l'anticorps monoclonal anti-PG E à étudier, mais la compétition a lieu entre la PG E tritiée correspondant à l'anticorps préparé et d'autres prostaglandines.
(§3) On mesure l'affinité et la spécificité des anti-corps secrétés dans le surnageant, par les méthodes radio-immunologiques de compétition de liaison précédemment décrites.

[2] = tested on: anticorps monoclonal anti-PG E2 secrété par les hybridomes 8E57 (CNCM 1-254); experiment: as above; conditions: 12 h at 4°C; for quantité qu'il faut pour déplacer 2,5 pg de PG E2 tritiée de sa liaison à l'anticorps: competition with tritiated PG E2
Description: as §1, §2, §3

[3] = target: anticorps monoclonal anti-PG E1 de la lignée d'hybridomes 36-F-20 (36F20, CNCM I-403), type IgG 1 Kapa; experiment: competition radioimmunoassay (affinity, Scatchard plot); conditions: association constant for PG E1; 720 min; read-out: constante d'affinité (converted)
Description: as §1

[4] = target: anticorps monoclonal anti-PG E2 de la souche 38-200.10 (CNCM I-401), type IgGl Kapa; experiment: as above; conditions: association constant for PG E2; 720 min; read-out: constante d'affinité (converted)
Description: as §1, §3

[5] = target: anticorps monoclonal anti-PG E2 de la souche 42-61-48.46 (CNCM I-402); experiment: as above; conditions: association constant for PG E2; 720 min; read-out: constante d'affinité (converted)
Description: as §1, §3

[6] = association constant for PG E2, 10 pg tritiated PG E2

Row | quantité qu'il faut pour déplacer 2,5 pg de PG E2 tritiée liée à l'anticorps [1] | quantité qu'il faut pour déplacer 2,5 pg de PG E2 tritiée de sa liaison à l'anticorps [2] | Kd [3] | constante d'affinité Ka [1, 6] | constante d'affinité Ka [2, 6] | Kd [4] | Kd [5] | Compound
1 | 1000 pg | 350 pg |  |  |  |  |  | CCCCC[C@H](O)/C=C/[C@H]1[C@H](O)CC(=O)[C@@H]1CC(=O)CCCCC(=O)O [6-céto-PG E1]
2 | 50 000 pg | > 500 pg |  |  |  |  |  | CCCCC[C@H](O)/C=C/[C@H]1C=CC(=O)[C@@H]1C/C=C\CCCC(=O)O [PG A2]
3 | 500 000 pg | > 10 000 pg |  |  |  |  |  | CCCCC[C@H](O)/C=C/C1=C(C/C=C\CCCC(=O)O)C(=O)CC1 [PG B2]
4 | 350 pg | 70 pg | 0.05 nM |  |  |  |  | CCCCC[C@H](O)/C=C/[C@H]1[C@H](O)CC(=O)[C@@H]1CCCCCCC(=O)O [PG E1]
5 | 80 pg | 40 pg |  | 5e+09 M⁻¹ | 10^10 M^-1 | 0.11 nM | 0.222 nM | CCCCC[C@H](O)/C=C/[C@H]1[C@H](O)CC(=O)[C@@H]1C/C=C\CCCC(=O)O [PG E2]
6 | 40 000 pg |  |  |  |  |  |  | CCCCC[C@H](O)/C=C/[C@@H]1[C@@H](CCCCCCC(=O)O)[C@@H](O)C[C@H]1O [PG Flalpha]
